Assay results from US20220016080A1, “COMPOUNDS THAT SELECTIVELY AND EFFECTIVELY INHIBIT HAKAI-MEDIATED UBIQUITINATION, AS ANTI-CANCER DRUGS” (FUNDACIÓN PROFESOR NOVOA SANTOS, priority 2018, published 2022).

Legend:
[1] = target: T1, E3 ubiquitin-ligase Hakai (Mus musculus, UniProt Q9JIY2); experiment: Hakai-dependent ubiquitination of the E-cadherin complex (immunoprecipitation, 293T cells); type: cell-based; details: 293T cells transfected with Flag-Hakai, myc-E-cadherin, v-Src, HA-ubiquitin; IP with anti-E-cadherin
T1 construct: expressed in transfected cells; host or cells: HEK293T (293) cells, co-transfected with v-Src and HA-ubiquitin, and in A3 also with myc-E-cadherin
T1 sequence (Q9JIY2 1-491): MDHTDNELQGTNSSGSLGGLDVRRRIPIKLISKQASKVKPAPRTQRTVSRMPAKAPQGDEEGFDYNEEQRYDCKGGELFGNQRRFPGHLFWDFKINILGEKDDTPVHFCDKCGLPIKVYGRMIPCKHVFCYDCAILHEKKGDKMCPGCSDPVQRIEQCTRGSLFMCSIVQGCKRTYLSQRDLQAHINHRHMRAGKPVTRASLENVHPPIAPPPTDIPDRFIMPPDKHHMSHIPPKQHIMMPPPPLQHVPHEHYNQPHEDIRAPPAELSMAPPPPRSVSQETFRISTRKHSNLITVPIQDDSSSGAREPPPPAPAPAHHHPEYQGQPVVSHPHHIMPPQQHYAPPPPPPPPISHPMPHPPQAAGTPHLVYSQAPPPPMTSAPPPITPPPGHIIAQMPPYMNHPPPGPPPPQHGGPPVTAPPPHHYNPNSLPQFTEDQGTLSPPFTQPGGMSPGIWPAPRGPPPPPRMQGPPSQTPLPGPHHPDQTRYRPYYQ
Procedure: For immunoprecipitation experiments, 293 cells were transfected with 3 μg Src, 4 μg Flag-Hakai, and 2 μg HA-ubiquitin and 3 μg E-cadherin with Lipofectamin 2000 (Invitrogen, UK). 24 h after transfection, cells were lysed for 20 min in 1 ml of 1% Triton X-100 lysis buffer (20 mM Tris-HCl pH 7.5, 150 mM NaCl and 1% Triton X-100) containing 10 μg/ml leupeptin, 10 μg/ml aprotinin and 1 mM phenylmethanesulphonyl fluoride (PMSF), supplemented with 10 mM N-ethylmaleimide and 2.5 mM sodium orthovanadate. After centrifugation at 18.000 g for 10 min, the supernatants were immunoprecipitated for 2 h with 2 μg of anti-E-cadherin antibody bound to 60 μl of protein G PLUS-Agarose beads, followed by SDS-polyacrylamide gel electrophoresis (PAGE) and western blotting with the indicated antibodies as previously reported.

[2] = system: Hakai-MDCK xenograft tumours; experiment: Tumour xenograft model (Hakai-MDCK cells in nude mice); type: in vivo, athymic nu/nu mice
Procedure: Xenografts experiments were performed in Experimental Surgery Unit—Technological Training Center from INIBIC in compliance with the European Community Law (86/609/EEC) and the Spanish law (R.D. 53/2013). The experiment was approved by the Ethics Committee for Animal Experimentation of Xerencia de Xestion Integrada da Coruna (XXIAC). Mice were in a 12/12 hours light/dark cycle with water and food available ad libitum. Six weeks old athymic nu/nu mice were randomly distributed in groups. One million of MDCK cells, resuspended in DMEM without serum and antibiotic, were subcutaneously inoculated in both flanks in two groups of 3 animals. The same number of Hakai-MDCK cells were injected in two groups of 4 animals. Twenty days after inoculation tumours in Hakai-MDCK were palpable. Then, half of the animals were treated with Hakin-1 (5 mg/kg) and the other half with the same concentration of DMSO every 3 days. Tumour outgrowth was monitored twice a week taking measurements of tumour length (L) and width (W) with an electronic calipter. Tumour volume was calculated as pLW2/6. Forty days after inoculation, animals were sacrificed. Tumours, lungs, kidneys and livers were collected and fixed in 4% PFA and embedded in paraffin blocks for histology and/or immunohistochemistry (IHC) analyses.
Tumours and tissues were deparaffinised, rehydrated and stained with haematoxylin and eosin (H&E) as previously described. Tumour sections (4 μm) were also deparaffinised and hydrated for immunohistochemistry. Antigen retrieval was carried by heating the samples (2100 Retriever; PickCell Laboratories) in citrate buffer (Dako REAL, Denmark) or in EDTA buffer. Then, endogenous peroxidase activity was blocked with peroxidase blocking (DakoCytomation, Denmark). Samples were blocked and permeabilized with 0.2% BSA and 0.1% Tx-100 for 1 hour and incubated with the indicated primary antibodies overnight at 4° C. in a wet chamber. Slides were incubated for 1 hour at room temperature with the secondary antibody and detection was carried our using DAB (DakoReal Envision kit) according to manufacturer instructions. Finally, nuclei were counterstained with Gill's Hematoxylin and mounted with DePeX. Pictures were taken with an Olympus microscope. Quantification of images was performed taken 5 photographs of each animal with Image J programme and the represented results are shown as mean±SEM. The number of mitosis was counted in sections stained with H&E. In this case, ten pictures of each tumour were taken with an Olympus BX50 microscope (objective 40×) and the number of mitosis was counted manually. Results are represented as mean±SEM and a representative photograph is shown for each condition. […]
Tissue sections from tumours were deparaffinised and rehydrated using standard protocols. The slides were rinsed twice with PBS and treated with citrate buffer buffer (Dako REAL, Denmark) in microwave at 350 W for 5 min. The tissue sections were then analysed with an in situ Cell Death Detection Kit, Fluorescein (Roche) following the manufacturer's instructions. Then, slides were incubated with Hoechst for 5 min in darkness. The reaction was visualized under an epifluorescence Olympus microscope using 20× objective. Five representative pictures of each section were taken. The percentage of positive cells was calculated and results are represented as mean±SEM.

HT-29 cells = experiment: Western blotting of EMT markers, HT-29; type: cell-based; details: 48 h
Procedure: For western blot analysis, cells were treated with the indicated inhibitors for 48 h and the whole cell extracts were obtained as described previously. Twenty micrograms of lysates were resolved on a 10% polyacrilamide SDS-PAGE followed by western blot analysis performed as previously described. For immunofluorescence assays cells were grown for 24 h on glass coverslips and treated with the indicated inhibitors for 48 h. Cells were fixed with 4% PFA for 15 min, permeabilized with 0.5% […] and incubated with E-cadherin antibody for 2 h. Coverslips were incubated with fluorescein-tagged secondary antibody (Dakopatts, Sweden) for […]. Finally coverslips were mounted with ProLong Gold antifade reagent (LifeTech, UK) and images were taken in epifluorescence microscope (Olympus) using 40× objective.

[3] = Hakai-MDCK xenograft tumours, 5 mg/kg every 3 days
[4] = Hakai-MDCK xenograft, 5 mg/kg every 3 days

Question: How did the “Hakai-dependent ubiquitination of E-cadherin complex” value [1] turn out when `O=C(O)c1ccc(-n2nnnc2SCC(=O)c2ccc([N+](=O)[O-])cc2)cc1` [Hakin-1, 4-(5-{[2-(4-nitrophenyl)-2-oxoethyl]thiol}-1H-tetrazol-1-yl)benzoic acid] was run?
Answer: reduction of Hakai-dependent ubiquitination of E-cadherin complex

Question: What about the “micrometastasis detected in lung (quantitative PCR of HA-tagged Hakai DNA)” value ([2]; Hakai-MDCK xenograft mice, compared to DMSO treated mice) of the same compound?
Answer: significant reduction of micrometastasis

Question: What about the “Cortactin expression (immunohistochemistry)” value ([2]; Hakai-MDCK xenograft tumours) of the same compound?
Answer: recovered

Question: And the “E-cadherin (immunohistochemistry)” value ([2]; Hakai-MDCK xenograft tumours, in presence or absence of treatment)?
Answer: not detected

Question: And the “apoptosis (TUNEL assay)” value [2, 3]?
Answer: no effect on apoptosis was detected

Question: And the “mitotic-index (H&E)” value [2, 3]?
Answer: markedly reduce

Question: What about the “number of Ki67-positive cells (immunohistochemistry)” value [2, 3] of the same compound?
Answer: markedly reduce

Question: And the “number of blood vessels (CD31 angiogenic marker)” value ([2]; Hakai-MDCK xenograft tumours, vs non-treated tumours)?
Answer: strong reduction on the number of blood vessels

Question: And the xenograft tumour growth ([2]; Hakai-MDCK xenograft, nude mice, 5 mg/kg every 3 days, vs DMSO)?
Answer: potent effect on inhibiting xenograft tumour growth

Question: And the “tumour-cell infiltration in blood vessels (H&E)” value [2, 4]?
Answer: no infiltration was detected

Question: What about the “xenograft tumour cell morphology (H&E)” value [2, 4] of the same compound?
Answer: induction of tumour differentiation and an increase in cytoplasm size

Question: And the “tissue damage (H&E, morphological structure)” value ([2]; lung and kidney tissues of treated nude mice, 5 mg/kg)?
Answer: no damage was observed

Question: What about the “N-cadherin expression (immunohistochemistry)” value ([2]; tumour xenografts, compared to DMSO treated mice) of the same compound?
Answer: strongly reduced

Question: And the “Cortactin expression levels (western blotting)” value (HT-29 cells)?
Answer: increase expression levels

Question: What about the “E-cadherin levels (western blotting)” value (HT-29 cells) of the same compound?
Answer: increase E-cadherin levels

Question: And the “mesenchymal Vimentin marker (western blotting)” value (HT-29 cells)?
Answer: reduced
